Assays:
Phakopsora pachyrhizi = Phakopsora pachyrhizi / soybean / leaf disc preventative (Asian soybean rust); assay type: in vivo; details: foliar, 200 ppm in the applied formulation, soybean leaf disks, inoculated one day after application, assessed 12 to 14 days after application, read-out: disease control compared to untreated control leaf disks
Procedure: (§1) Leaf disks or leaf segments of various plant species are cut from plants grown in a greenhouse. The cut leaf disks or segments are placed in multiwell plates (24-well format) onto water agar. The leaf disks are sprayed with a test solution before (preventative) or after (curative) inoculation. Compounds to be tested are prepared as DMSO solutions (max. 10 mg/ml) which are diluted to the appropriate concentration with 0.025% Tween20 just before spraying. The inoculated leaf disks or segments are incubated under defined conditions (temperature, relative humidity, light, etc.) according to the respective test system. A single evaluation of disease level is carried out 3 to 14 days after inoculation, depending on the pathosystem. Percent disease control relative to the untreated check leaf disks or segments is then calculated.
Soybean leaf disks are placed on water agar in multiwell plates (24-well format) and sprayed with the formulated test compound diluted in water. One day after application leaf discs are inoculated by spraying a spore suspension on the lower leaf surface. After an incubation period in a climate cabinet of 24-36 hours in darkness at 20° C. and 75% rh leaf disc are kept at 20° C. with 12 h light/day and 75% rh. The activity of a compound is assessed as percent disease control compared to untreated when an appropriate level of disease damage appears in untreated check leaf disks (12 to 14 days after application).
The following compounds at 200 ppm in the applied formulation give at least 80% disease control in this test when compared to untreated control leaf disks under the same conditions, which show extensive disease development.

[1] = tested on: Glomerella lagenarium (Colletotrichum lagenarium); assay: Glomerella lagenarium (Colletotrichum lagenarium) liquid culture / cucumber / preventative (anthracnose); assay type: cell-based; details: Colletotrichum orbiculare; 20 ppm in the applied formulation; liquid culture in PDB, 24° C.; 3 to 4 days after application; read-out: disease control compared to untreated control (inhibition of growth measured photometrically)
Procedure: Mycelia fragments or conidia suspensions of a fungus prepared either freshly from liquid cultures of the fungus or from cryogenic storage, are directly mixed into nutrient broth. DMSO solutions of the test compound (max. 10 mg/ml) are diluted with 0.025% Tween20 by a factor of 50 and 10 μl of this solution is pipetted into a microtiter plate (96-well format). The nutrient broth containing the fungal spores/mycelia fragments is then added to give an end concentration of the tested compound. The test plates are incubated in the dark at 24° C. and 96% relative humidity. The inhibition of fungal growth is determined photometrically after 2 to 7 days, depending on the pathosystem, and percent antifungal activity relative to the untreated check is calculated.
Conidia of the fungus from cryogenic storage are directly mixed into nutrient broth (PDB—potato dextrose broth). After placing a (DMSO) solution of test compound into a microtiter plate (96-well format), the nutrient broth containing the fungal spores is added. The test plates are incubated at 24° C. and the inhibition of growth is measured photometrically 3 to 4 days after application.
The following compounds at 20 ppm in the applied formulation give at least 80% disease control in this test when compared to untreated control under the same conditions, which show extensive disease development.

[2] = tested on: Puccinia recondita f. Sp. Tritici; assay: Puccinia recondita f. sp. tritici / wheat / leaf disc preventative (brown rust); assay type: in vivo; details: foliar, 200 ppm in the applied formulation, wheat leaf segments cv. Kanzler, inoculated 1 day after application, assessed 7 to 9 days after application, read-out: disease control compared to untreated control leaf disks
Procedure: as §1, with “calculated. Wheat leaf segments cv. Kanzler were placed on agar in multiwell plates (24-well format) and sprayed with the formulated test compound diluted in water. The leaf disks were inoculated with a spore suspension of the fungus 1 day after application. The inoculated leaf segments were incubated at 19° C. and 75% relative humidity (rh) under a light regime of 12 hours light/12 hours darkness in a climate cabinet and the activity of a compound was assessed as percent disease control compared to untreated when an appropriate level of disease damage appears in untreated check leaf segments (7 to 9 days after application). The following compounds at 200 ppm in the applied formulation give at least 80% disease control in this test when compared to untreated control leaf disks under the same conditions, which show extensive disease development.” for “calculated.”

Row | melting point | Structure (SMILES) | pest or weed control at 200 ppm (Phakopsora pachyrhizi) | inhibition at 20 ppm [1] | pest or weed control at 200 ppm [2]
1 | 110 to 116 °C | O=S(=O)(c1ccc(-c2noc(C(F)(F)F)n2)cc1)C1CCCCC1 [Compound 3.3, 3-(4-cyclohexylsulfonylphenyl)-5-(trifluoromethyl)-1,2,4-oxadiazole] | ≥ 80% | ≥ 80% | 
2 | 144 to 149 °C | O=S(=O)(c1ccc(F)cc1)c1ccc(-c2noc(C(F)(F)F)n2)cc1 [Compound 3.9, 3-[4-(4-fluorophenyl)sulfonylphenyl]-5-(trifluoromethyl)-1,2,4-oxadiazole] | ≥ 80% |  | ≥ 80%
3 | 119 to 123 °C | COc1ccccc1S(=O)(=O)c1ccc(-c2noc(C(F)(F)F)n2)cc1 [Compound 3.10, 3-[4-(2-methoxyphenyl)sulfonyl-phenyl]-5-(trifluoromethyl)-1,2,4-oxadiazole] |  |  | ≥ 80%
4 | 140 to 147 °C | O=S(=O)(c1ccc(-c2noc(C(F)(F)F)n2)cc1)c1ccccc1F [Compound 3.12, 3-[4-(2-fluorophenyl)sulfonylphenyl]-5-(trifluoromethyl)-1,2,4-oxadiazole] | ≥ 80% | ≥ 80% | 
5 | 109 to 115 °C | Cc1ccccc1S(=O)(=O)c1ccc(-c2noc(C(F)(F)F)n2)cc1 [Compound 3.17, 3-[4-(o-tolylsulfonyl)phenyl]-5-(trifluoromethyl)-1,2,4-oxadiazole] |  | ≥ 80% | ≥ 80%
6 | 66 to 68 °C | Cc1ccccc1S(=O)(=O)c1ccc(-c2noc(C(F)(F)F)n2)cn1 [Compound 3.18, 3-[6-(o-tolylsulfonyl)-3-pyridyl]-5-(trifluoromethyl)-1,2,4-oxadiazole] |  | ≥ 80% | ≥ 80%
7 | 145 to 151 °C | O=S(=O)(c1ccc(-c2noc(C(F)(F)F)n2)cn1)c1ccccc1F [Compound 3.19, 3-[6-(2-fluorophenyl)sulfonyl-3-pyridyl]-5-(trifluoromethyl)-1,2,4-oxadiazole] |  | ≥ 80% | ≥ 80%
8 | 160 to 166 °C | O=S(=O)(Cc1ccc(-c2noc(C(F)(F)F)n2)cn1)c1ccccc1 [Compound 3.21, 3-[6-(benzenesulfonylmethyl)-3-pyridyl]-5-(trifluoromethyl)-1,2,4-oxadiazole] | ≥ 80% | ≥ 80% | 

Second part, the molecule before the results:

Row | Structure (SMILES) | melting point | pest or weed control at 200 ppm (Phakopsora pachyrhizi) | inhibition at 20 ppm [1] | pest or weed control at 200 ppm [2]
9 | Fc1cc(-c2noc(C(F)(F)F)n2)ccc1CSc1ccccc1 [Compound 1.24, 3-[3-fluoro-4-(phenylsulfanylmethyl)phenyl]-5-(trifluoromethyl)-1,2,4-oxadiazole] | 50 to 55 °C | ≥ 80% | ≥ 80% | 
10 | Fc1cc(CSc2ccccc2)ccc1-c1noc(C(F)(F)F)n1 [Compound 1.25, 3-[2-fluoro-4-(phenylsulfanylmethyl)phenyl]-5-(trifluoromethyl)-1,2,4-oxadiazole] | 48 to 54 °C | ≥ 80% | ≥ 80% | 
11 | Cc1ccc(C)c([S+]([O-])c2ccc(-c3noc(C(F)(F)F)n3)cc2)c1 (stereo not shown) [Compound 2.7, 3-[4-(2,5-dimethylphenyl)sulfinyl-phenyl]-5-(trifluoromethyl)-1,2,4-oxadiazole] | 103 to 109 °C | ≥ 80% | ≥ 80% | ≥ 80%
12 | [O-][S+](Cc1c(F)cccc1F)c1ccc(-c2noc(C(F)(F)F)n2)cc1 (stereo not shown) [Compound 2.9, 3-[4-[(2,6-difluorophenyl)methyl-sulfinyl]phenyl]-5-(trifluoromethyl)-1,2,4-oxadiazole] | 126 to 130 °C | ≥ 80% | ≥ 80% | 
13 | Cc1cc(-c2noc(C(F)(F)F)n2)ccc1[S+]([O-])c1ccccc1 (stereo not shown) [Compound 2.11, 3-[4-(benzenesulfinyl)-3-methyl-phenyl]-5-(trifluoromethyl)-1,2,4-oxadiazole] |  | ≥ 80% | ≥ 80% | ≥ 80%
14 | [O-][S+](c1ccc(-c2noc(C(F)(F)F)n2)cc1)c1ccc(C(F)(F)F)cc1 (stereo not shown) [Compound 2.14, 5-(trifluoromethyl)-3-[4-[4-(trifluoromethyl)phenyl]sulfinylphenyl]-1,2,4-oxadiazole] | 94 to 100 °C |  | ≥ 80% | ≥ 80%
15 | [O-][S+](c1ccc(-c2noc(C(F)(F)F)n2)cc1)c1c(F)cccc1F (stereo not shown) [Compound 2.16, 3-[4-(2,6-difluorophenyl)sulfinyl-phenyl]-5-(trifluoromethyl)-1,2,4-oxadiazole] | 148 to 155 °C | ≥ 80% |  | ≥ 80%
16 | [O-][S+](Cc1ccc(-c2noc(C(F)(F)F)n2)cc1)c1ccccc1F (stereo not shown) [Compound 2.17, 3-[4-[(2-fluorophenyl)sulfinylmethyl]phenyl]-5-(trifluoromethyl)-1,2,4-oxadiazole] | 108 to 118 °C | ≥ 80% | ≥ 80% | 
17 | [O-][S+](c1ccc(-c2noc(C(F)(F)F)n2)cc1)c1ccccc1F (stereo not shown) [Compound 2.18, 3-[4-(2-fluorophenyl)sulfinylphenyl]-5-(trifluoromethyl)-1,2,4-oxadiazole] | 116 to 121 °C | ≥ 80% | ≥ 80% | ≥ 80%
18 | [O-][S+](c1ccc(-c2noc(C(F)(F)F)n2)cc1)c1cccc(F)c1 (stereo not shown) [Compound 2.20, 3-[4-(3-fluorophenyl)sulfinylphenyl]-5-(trifluoromethyl)-1,2,4-oxadiazole] | 103 to 111 °C | ≥ 80% | ≥ 80% | ≥ 80%
19 | Cc1ccccc1[S+]([O-])c1ccc(-c2noc(C(F)(F)F)n2)cn1 (stereo not shown) [Compound 2.25, 3-[6-(o-tolylsulfinyl)-3-pyridyl]-5-(trifluoromethyl)-1,2,4-oxadiazole] | 103 to 105 °C | ≥ 80% | ≥ 80% | ≥ 80%
20 | [O-][S+](Cc1ccc(-c2noc(C(F)(F)F)n2)cc1F)c1ccccc1 (stereo not shown) [Compound 2.29, 3-[4-(benzenesulfinylmethyl)-3-fluoro-phenyl]-5-(trifluoromethyl)-1,2,4-oxadiazole] | 116 to 120 °C | ≥ 80% | ≥ 80% | 
21 | [O-][S+](Cc1ccc(-c2noc(C(F)(F)F)n2)c(F)c1F)c1ccccc1 (stereo not shown) [Compound 2.31, 3-[4-(benzenesulfinylmethyl)-2,3-difluoro-phenyl]-5-(trifluoromethyl)-1,2,4-oxadiazole] | 163 to 167 °C | ≥ 80% | ≥ 80% | ≥ 80%
